ChEMBL document CHEMBL6153127, “Cyclodepsipeptides and Fatty Acid Lactones from the Freshwater-Derived Fungus, Talaromyces gwangjuensis, and Their Potential as Autophagy Activators” (J Nat Prod, 2025)
The source made the active and inactive calls. The rule behind the calls is not given here.

How the values were obtained:
Type in all cases: functional, cell-based
HEK293-A [1] = experiment: Regulation of autophagy in HEK293-A cells expressing GFP-tagged LC3 assessed as increase in green fluorescence at 10 uM incubated for 24 hrs by confocal microscopy; conditions: Homo sapiens
HEK293-A [2] = experiment: Cytotoxicity against HEK293-A cells expressing GFP-tagged LC3 assessed as cell viability at 10 uM incubated for 24 hrs by MTT assay; conditions: Homo sapiens
IMR-90 [3] = experiment: Induction of autophagy in human IMR-90 cells expressing GFP-mCherry-tagged LC3 assessed as increase in red puncta at 10 uM incubated for 24 hrs by DAPI staining based confocal microscopy
IMR-90 [4] = experiment: Induction of autophagic flux in human IMR-90 cells expressing GFP-mCherry-tagged LC3 assessed as accumulation of LC3B-II incubated for 6 hrs in presence of chloroquine by Western blot analysis; conditions: dose 1-20 µM

Row | SMILES | Activity (HEK293-A [1]) | Activity (HEK293-A [2]) | Activity (IMR-90 [3]) | Activity (IMR-90 [4])
1 | CCCCCCCC[C@@H](C)[C@@H]1OC(=O)[C@H](CO)NC(=O)[C@H](C(=O)c2c[nH]c3ccccc23)NC(=O)[C@@H](CCC(=O)OCC)NC(=O)[C@H]1C | Active | inactive |  | 
2 | C=C1C(=O)O[C@@H](C(=O)O)[C@@H]1CCCCCCCCCCC |  | Active |  | 
3 | CCCCCCCC[C@@H](C)[C@@H]1OC(=O)[C@H](CO)NC(=O)[C@H](Cc2c[nH]c3ccccc23)NC(=O)[C@@H](CCC(=O)O)NC(=O)[C@H]1C | Active | inactive | Active | 
4 | CCCCCCCC[C@@H](COC(C)=O)[C@@H]1OC(=O)[C@H](CO)NC(=O)[C@H](C(=O)c2c[nH]c3ccccc23)NC(=O)[C@@H](CCC(=O)O)NC(=O)[C@H]1C | Active | inactive | Active | Dose-dependent-effect
5 | C=C1C(=O)O[C@H](CCCCCCCCCC)[C@H]1[C@@H](O)C(=O)OCC |  | inactive |  | 
6 | CCCCCCCC[C@@H]1COC(=O)[C@H](CO)NC(=O)[C@H](C(=O)c2c[nH]c3ccccc23)NC(=O)[C@@H](CCC(=O)O)NC(=O)[C@@H](C)[C@H]1O | Active | inactive |  | 
7 | O=C(c1c[nH]c2ccccc12)C(O)CO (stereo not drawn) |  | inactive |  | 
8 | CCCCCCCCCCCC[C@H](O)[C@]1(O)[C@@H](COC)C(=O)O[C@H]1C(=O)O |  | inactive |  | 
9 | CCCCCCCC[C@@H](COC(C)=O)[C@@H]1OC(=O)[C@H](CO)NC(=O)[C@H](C(=O)c2c[nH]c3ccccc23)NC(=O)[C@@H](CCC(=O)OCC)NC(=O)[C@H]1C | Active | inactive |  | 
10 | CCCCCCCCCC[C@H](O)C1=C(COCC)C(=O)OC1 |  | inactive |  | 
11 | CCCCCCCC[C@@H](C)[C@@H]1OC(=O)[C@H](CO)NC(=O)/C(=C/c2c[nH]c3ccccc23)NC(=O)[C@@H](CCC(=O)O)NC(=O)[C@H]1C | Active | inactive | Active | 
12 | CCCCCCCC[C@@H](C)[C@@H]1OC(=O)[C@H](CO)NC(=O)[C@H](C(=O)c2c[nH]c3ccccc23)NC(=O)[C@@H](CCC(=O)O)NC(=O)[C@H]1C | Active | inactive |  | 
